Data as given in patent US20240316087A1, “Compositions And Methods For Inducing Apoptosis In Anaerobic Cells And Related Clinical Methods For Treating Cancer And Pathogenic Infections” (priority 2017, published 2024).

Tests used:
NK cells = test: NK cell cancer-killing activity assay with immune cells from cancer patients; assay type: cell-based, human
Procedure: Immune cells were obtained from blood samples of 73 cancer patients. The capability of these immune cells to kill tumor cells in vitro was determined using a conventional cellular NK activity assay (Neri et al, Clin. Diagn. Lab. Immunol. 2001 November; 8(6): 1131-1135).
Control samples for these assays employed immune cells from patients diagnosed as having no detectable cancer. One exemplary test run (FIG. 4) compared nine patient samples side by side (samples 4 and 5 are controls, from patients with no cancer).

[1] = tested on: EBV, hepatitis C, CMV and herpes II virus; test: Viral load assays in treated patients; assay type: in vivo, human
Source text: These patients were selected as having been diagnosed with a heavy load, chronic viral infection and/or Stage IV cancer. Some of these subjects presented with only viral infection, and some with only Stage IV cancer, whereas a sizeable group of 64 subjects had co-morbid Stage IV cancer attended by a heavy load chronic viral infection. The principal viral subjects in these studies were Epstein Barr virus (EBV), hepatitis C virus, cytomegalovirus (CMV) and herpes virus.
Nagalase levels and viral load were quantified using conventional assays for each patient, before and after successive iv Salicinium® treatments, and after extended oral Salicinium follow-on therapy (using the […] and oral treatment protocol described in Example II, above).

4-(beta-D-allopyranosyloxy)-benzaldehyde [Salicinium]
average increase in NK cell cancer-killing activity compared to basal (NK cells; cumulative samples (73 cancer patients), helicidum 0.5 mg/ml, 24 hours): 2.6 times | increase in NK cell cancer-killing activity above basal activity (NK cells; exemplary test run, FIG. 4, cancer patient samples, helicidum 0.5 mg/ml, 24 hours): from about 50% to 2- or 3-fold, up to about 4-fold or higher | increase in NK cell activity in control samples (NK cells; immune cells from patients with no detectable cancer, Salicinium present): little or no increase in NK cell activity | treated subjects in whom high load viral infection became undetectable ([1]; EBV and herpes II subjects, within six months following initial iv treatment): 50% | drop in median viral loads ([1]; EBV, hepatitis C, CMV and herpes II, first month): 20-25% | additional drop in median viral loads ([1]; EBV, hepatitis C, CMV and herpes II, within three months after treatment): 20% | viral subjects entirely clear of detectable virus ([1]; EBV, hepatitis C, herpes virus and CMV, after one year): 87%
